Data as given in ChEMBL document CHEMBL1201862, “PubChem BioAssay data set” (2004).
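1) Cells in 96-well plates. 2) Compound, 48 h, 5 concentrations. 3) Linear interpolation between surrounding doses. 4) Unreached endpoint = highest concentration. Abbreviation: GI50, concentration required for 50% inhibition of growth.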 The source made the active and inactive calls. Rule as the data show it: active = GI50 up to about 1.1 µM and inactive = higher.

Legend:
Test in all cases: NCI anticancer screen, dose series, 48 h
DU-145 = tested on: DU-145
RXF 393 = tested on: RXF 393
SNB-75 = tested on: SNB-75
SNB-19 = tested on: SNB-19
MDA-MB-231 = tested on: MDA-MB-231
Hs-578T = tested on: Hs-578T
MCF7 = tested on: MCF7
KM12 = tested on: KM12
A498 = tested on: A498
COLO 205 = tested on: COLO 205
LOX IMVI = tested on: LOX IMVI
SK-MEL-28 = tested on: SK-MEL-28
SK-MEL-5 = tested on: SK-MEL-5
MOLT-4 = tested on: MOLT-4
ACHN = tested on: ACHN
U-251 = tested on: U-251
T47D = tested on: T47D
TK-10 = tested on: TK-10
HOP-92 = tested on: HOP-92
HCT-15 = tested on: HCT-15

Structure (SMILES): O=c1[nH]c2nccn2c(Cl)c1Br
- GI50 (DU-145): 83.8 µM (inactive)
- GI50 (RXF 393): 1.94 µM (inactive)
- GI50 (SNB-75): 33.7 µM (inactive)
- GI50 (SNB-19): 27.7 µM (inactive)
- GI50 (MDA-MB-231): 17.5 µM (inactive)
- GI50 (Hs-578T): 26.9 µM (inactive)
- GI50 (MCF7): 42.6 µM (inactive)
- GI50 (KM12): 95.1 µM (inactive)
- GI50 (A498): 76 µM (inactive)
- GI50 (COLO 205): 18.6 µM (inactive)
- GI50 (LOX IMVI): 18 µM (inactive)
- GI50 (SK-MEL-28): 19.4 µM (inactive)
- GI50 (SK-MEL-5): 25.2 µM (inactive)
- GI50 (MOLT-4): 20.2 µM (inactive)
- GI50 (ACHN): 29.9 µM (inactive)
- GI50 (U-251): 17.3 µM (inactive)
- GI50 (T47D): 14.8 µM (inactive)
- GI50 (TK-10): > 100 µM (inactive)
- GI50 (HOP-92): 24.7 µM (inactive)
- GI50 (HCT-15): 16.6 µM

Structure (SMILES): C/C=C(/C)C(=O)O[C@H]1[C@H](O)CC(c2ccc3c(c2O)C(=O)C2=C(O)C4(OC)C(=O)C(C(N)=O)=C(O)[C@H](CC(=O)c5ccccc5O)C4CC2[C@@]3(C)OC)O[C@@H]1C (stereo not given in full)
- GI50 (DU-145): 0.0265 µM (active)
- GI50 (RXF 393): 0.0198 µM (active)
- GI50 (SNB-75): 0.0198 µM (active)
- GI50 (SNB-19): 0.00433 µM (active)
- GI50 (MDA-MB-231): 0.0078 µM (active)
- GI50 (Hs-578T): 0.0041 µM (active)
- GI50 (MCF7): 0.00363 µM (active)
- GI50 (KM12): 0.00647 µM (active)
- GI50 (A498): 0.0422 µM (active)
- GI50 (COLO 205): 0.0104 µM (active)
- GI50 (LOX IMVI): 0.0035 µM (active)
- GI50 (SK-MEL-28): 0.653 µM (active)
- GI50 (SK-MEL-5): 0.001 µM (active)
- GI50 (MOLT-4): 0.148 µM (active)
- GI50 (ACHN): 0.00418 µM (active)
- GI50 (U-251): 0.00256 µM (active)
- GI50 (T47D): 0.0113 µM (active)
- GI50 (TK-10): 0.00817 µM (active)
- GI50 (HOP-92): 0.0218 µM (active)
- GI50 (HCT-15): 0.00507 µM

Structure (SMILES): CC(C)C(=O)/C=C/c1ccc(Cl)cc1Cl
- GI50 (DU-145): 14.2 µM (inactive)
- GI50 (RXF 393): 8.79 µM (inactive)
- GI50 (SNB-75): 14.4 µM (inactive)
- GI50 (SNB-19): 15.8 µM (inactive)
- GI50 (MDA-MB-231): 23.9 µM (inactive)
- GI50 (Hs-578T): 3.51 µM (inactive)
- GI50 (MCF7): 3.62 µM (inactive)
- GI50 (KM12): 4.06 µM (inactive)
- GI50 (A498): 17.9 µM (inactive)
- GI50 (COLO 205): 18.5 µM (inactive)
- GI50 (LOX IMVI): 3.55 µM (inactive)
- GI50 (SK-MEL-28): 16.5 µM (inactive)
- GI50 (SK-MEL-5): 14.5 µM (inactive)
- GI50 (MOLT-4): 8.15 µM (inactive)
- GI50 (ACHN): 16.2 µM (inactive)
- GI50 (U-251): 12.6 µM (inactive)
- GI50 (T47D): 13 µM (inactive)
- GI50 (TK-10): 14.2 µM (inactive)
- GI50 (HOP-92): 16.8 µM (inactive)
- GI50 (HCT-15): 12.2 µM

Structure (SMILES): COc1cc2c3cc1Oc1c(OC)c(OC)cc4c1C(Cc1ccc(O)c(c1)-c1cc(ccc1OC)CC3N(C)CC2)N(C)CC4 (stereo not given)
- GI50 (DU-145): 50.8 µM (inactive)
- GI50 (RXF 393): 1.96 µM (inactive)
- GI50 (SNB-75): 18.7 µM (inactive)
- GI50 (SNB-19): 22.3 µM (inactive)
- GI50 (MDA-MB-231): 13.3 µM (inactive)
- GI50 (Hs-578T): 21.3 µM (inactive)
- GI50 (MCF7): 16.5 µM (inactive)
- GI50 (KM12): 17.5 µM (inactive)
- GI50 (A498): 23.2 µM (inactive)
- GI50 (COLO 205): 25.1 µM (inactive)
- GI50 (LOX IMVI): 4.8 µM (inactive)
- GI50 (SK-MEL-28): 27 µM (inactive)
- GI50 (SK-MEL-5): 14.8 µM (inactive)
- GI50 (MOLT-4): 11.8 µM (inactive)
- GI50 (ACHN): 15.8 µM (inactive)
- GI50 (U-251): 28.1 µM (inactive)
- GI50 (T47D): 24.2 µM (inactive)
- GI50 (TK-10): 32.9 µM (inactive)
- GI50 (HOP-92): 20.2 µM (inactive)
- GI50 (HCT-15): 6.07 µM

Structure (SMILES): O=C(O)c1ccccc1C1CCCc2c1[nH]c1ccccc21 (stereo not given)
- GI50 (DU-145): > 100 µM (inactive)
- GI50 (RXF 393): 22.3 µM (inactive)
- GI50 (SNB-75): 12.7 µM (inactive)
- GI50 (SNB-19): > 100 µM (inactive)
- GI50 (MDA-MB-231): 37.3 µM (inactive)
- GI50 (Hs-578T): 86.9 µM (inactive)
- GI50 (MCF7): 30.1 µM (inactive)
- GI50 (KM12): 36.7 µM (inactive)
- GI50 (A498): 30.2 µM (inactive)
- GI50 (COLO 205): 74 µM (inactive)
- GI50 (LOX IMVI): 44.2 µM (inactive)
- GI50 (SK-MEL-28): 96.6 µM (inactive)
- GI50 (SK-MEL-5): 36.5 µM (inactive)
- GI50 (MOLT-4): 27.2 µM (inactive)
- GI50 (ACHN): 58.5 µM (inactive)
- GI50 (U-251): 81.8 µM (inactive)
- GI50 (T47D): 11.4 µM (inactive)
- GI50 (TK-10): > 100 µM (inactive)
- GI50 (HOP-92): 24 µM (inactive)
- GI50 (HCT-15): 44.4 µM

Structure (SMILES): Cc1cc(C)c2c(=N)c3ccccc3n(CCCCCCCCn3c4ccccc4c(=N)c4c(C)cc(C)nc43)c2n1
- GI50 (DU-145): 1.64 µM (inactive)
- GI50 (RXF 393): 1.32 µM (inactive)
- GI50 (SNB-75): 0.596 µM (active)
- GI50 (SNB-19): 0.282 µM (active)
- GI50 (MDA-MB-231): 1.84 µM (inactive)
- GI50 (Hs-578T): 1.81 µM (inactive)
- GI50 (MCF7): 0.586 µM (active)
- GI50 (KM12): 0.358 µM (active)
- GI50 (A498): 1.59 µM (inactive)
- GI50 (COLO 205): 1.47 µM (inactive)
- GI50 (LOX IMVI): 0.515 µM (active)
- GI50 (SK-MEL-28): 1.6 µM (inactive)
- GI50 (SK-MEL-5): 1.82 µM (inactive)
- GI50 (MOLT-4): 0.258 µM (active)
- GI50 (ACHN): 1.56 µM (inactive)
- GI50 (U-251): 0.553 µM (active)
- GI50 (T47D): 1.77 µM (inactive)
- GI50 (TK-10): 1.93 µM (inactive)
- GI50 (HOP-92): 1.26 µM (inactive)
- GI50 (HCT-15): 0.2 µM

Structure (SMILES): N#Cc1c(N)[nH]c2ccc(Sc3ccccc3)cc12
- GI50 (DU-145): 0.721 µM (active)
- GI50 (RXF 393): 0.208 µM (active)
- GI50 (SNB-75): 0.624 µM (active)
- GI50 (SNB-19): 0.46 µM (active)
- GI50 (MDA-MB-231): 0.881 µM (active)
- GI50 (Hs-578T): 0.449 µM (active)
- GI50 (MCF7): < 0.0711 µM (active)
- GI50 (KM12): 0.113 µM (active)
- GI50 (A498): 0.196 µM (active)
- GI50 (COLO 205): 0.323 µM (active)
- GI50 (LOX IMVI): 0.213 µM (active)
- GI50 (SK-MEL-28): 0.141 µM (active)
- GI50 (SK-MEL-5): 0.145 µM (active)
- GI50 (MOLT-4): 0.143 µM (active)
- GI50 (ACHN): 0.284 µM (active)
- GI50 (U-251): 0.297 µM (active)
- GI50 (T47D): 0.622 µM (active)
- GI50 (TK-10): 1.8 µM (inactive)
- GI50 (HOP-92): 1.78 µM (inactive)
- GI50 (HCT-15): 0.098 µM

Structure (SMILES): CCNC(=O)/C(=C/c1ccc(OC)cc1)c1cc(OC)c(OC)c(OC)c1
- GI50 (DU-145): 13.3 µM (inactive)
- GI50 (RXF 393): 1.95 µM (inactive)
- GI50 (SNB-75): 4.97 µM (inactive)
- GI50 (SNB-19): 12.5 µM (inactive)
- GI50 (MDA-MB-231): 6.41 µM (inactive)
- GI50 (Hs-578T): 5.26 µM (inactive)
- GI50 (MCF7): 4.84 µM (inactive)
- GI50 (KM12): 4.23 µM (inactive)
- GI50 (A498): 14.9 µM (inactive)
- GI50 (COLO 205): 5.11 µM (inactive)
- GI50 (LOX IMVI): 8.39 µM (inactive)
- GI50 (SK-MEL-28): 5.79 µM (inactive)
- GI50 (SK-MEL-5): 3.71 µM (inactive)
- GI50 (MOLT-4): 7.35 µM (inactive)
- GI50 (ACHN): 32.8 µM (inactive)
- GI50 (U-251): 7.21 µM (inactive)
- GI50 (T47D): > 20.4 µM (inactive)
- GI50 (TK-10): 20.5 µM (inactive)
- GI50 (HOP-92): 28.3 µM (inactive)
- GI50 (HCT-15): 4.11 µM
